Measurements: US10681909B2, “Herbicidal triazoles” (FMC Corporation, priority 2014, dated 2020)

Assays:
morningglory [1] = experiment: Test C preemergence; type: in vivo, Ipomoea coccinea; conditions: for Plant response rating (scale of 0 to 100 where 0 is no effect and 100 is complete control): Morningglory, preemergence; for Morningglory plant response rating (0 to 100): Preemergence, visual rating after 13 to 15 d
Text: Seeds of plant species selected from blackgrass (Alopecurus myosuroides), ryegrass, Italian (Italian ryegrass, Lolium multiflorum), wheat (winter wheat, Triticum aestivum), galium (catchweed bedstraw, Galium aparine), corn (Zea mays), crabgrass, large (large crabgrass, Digitaria sanguinalis), foxtail, giant, (giant foxtail, Setaria faberii), johnsongrass (Sorghum halepense), lambsquarters (Chenopodium album), morningglory (Ipomoea coccinea), nutsedge, yellow (yellow nutsedge, Cyperus esculentus), pigweed (Amaranthus retroflexus), ragweed (common ragweed, Ambrosia elatior), soybean (Glycine max), barnyardgrass (Echinochloa crus-galli), oilseed rape (Brassica napus), waterhemp (common waterhemp, Amaranthus rudis), and velvetleaf (Abutilon theophrasti) were planted into a blend of loam soil and sand and treated preemergence with test chemicals formulated in a non-phytotoxic solvent mixture which included a surfactant. At the same time, plants selected from these crop and weed species and also chickweed (common chickweed, Stellaria media), oat, wild (wild oat, Avena fatua), and kochia (Kochia scoparia), were planted in pots containing Sunshine Redi-Earth® planting medium comprising spaghnum peat moss, vermiculite, starter nutrients and dolomitic limestone and treated with postemergence applications of test chemicals formulated in the same manner. Plants ranged in height from 2 to 18 cm (1- to 4-leaf stage) for postemergence treatments. […] A dash (-) response means no test result.

surinam grass = experiment: Test E preemergence; type: in vivo, Brachiaria decumbens; conditions: scale 0 to 100
Text: (§1) Seeds of plant species selected from corn (Zea mays), soybean (Glycine max), lambsquarters (Chenopodium album), poinsettia, wild (wild poinsettia, Euphorbia heterophylla), pigweed, palmer (palmer pigweed, Amaranthus palmeri), waterhemp (common waterhemp, Amaranthus rudis), surinam grass (Brachiaria decumbens), crabgrass, large (large crabgrass, Digitaria sanguinalis), crabgrass, Brazilian (Brazilian crabgrass, Digitaria horizontalis), panicum, fall (fall panicum, Panicum dichotomiflorum), foxtail, giant (giant foxtail, Setaria faberii), foxtail, green (green foxtail, Setaria viridis), goosegrass (Eleusine indica), johnsongrass (Sorghum halepense), ragweed (common ragweed, Ambrosia elatior), barnyardgrass (Echinochloa crus-galli), sandbur (southern sandbur, Cenchrus echinatus), arrowleaf sida (Sida rhombifolia), ryegrass, Italian (Italian ryegrass, Lolium multiflorum), dayflower, VA (Virginia dayflower, Commelina virginica), field bindweed (Convolvulus arvensis), cocklebur (common cocklebur, Xanthium strumarium), morningglory (Ipomoea coccinea), nightshade (eastern black nightshade, Solanum ptycanthum), kochia (Kochia scoparia), nutsedge, yellow (yellow nutsedge, Cyperus esculentus), smartweed (ladysthumb smartweed, Polygonum persicaria), velvetleaf (Abutilon theophrasti), horseweed (Conyza canadensis), and beggarticks (hairy beggarticks, Bidens pilosa), were planted into a silt loam soil and treated preemergence with test chemicals formulated in a non-phytotoxic solvent mixture which included a surfactant.
(§2) At the same time, plants from these crop and weed species and also waterhemp_RES1, (ALS & Triazine resistant common waterhemp, Amaranthus rudis), and waterhemp_RES2, (ALS & HPPD resistant common waterhemp, Amaranthus rudis) were planted in pots containing Sunshine Redi-Earth® planting medium comprising spaghnum peat moss, vermiculite, starter nutrients and dolomitic limestone were treated with postemergence applications of test chemicals formulated in the same manner. Plants ranged in height from 2 to 18 cm for postemergence treatments (1- to 4-leaf stage). Treated plants and controls were maintained in a greenhouse for 14 to 21 d, after which time all species were compared to controls and visually evaluated. Plant response ratings, summarized in Table E, are based on a scale of 0 to 100 where 0 is no effect and 100 is complete control. A dash (-) response means no test result.

crabgrass, Brazilian = experiment: Test E preemergence; type: in vivo, Digitaria horizontalis; conditions: Brazil, scale 0 to 100
Text: as §1, §2

foxtail, giant = experiment: Test E preemergence; type: in vivo, Setaria faberii; conditions: scale 0 to 100
Text: as §1, §2

barnyardgrass = experiment: Test E preemergence; type: in vivo, Echinochloa crus-galli; conditions: scale 0 to 100
Text: as §1, §2

sandbur = experiment: Test E preemergence; type: in vivo, Cenchrus echinatus; conditions: scale 0 to 100
Text: as §1, §2

morningglory [2] = experiment: Test E preemergence; type: in vivo, Ipomoea coccinea; conditions: scale 0 to 100
Text: as §1, §2

kochia = experiment: Test E preemergence; type: in vivo, Kochia scoparia; conditions: scale 0 to 100
Text: as §1, §2

beggarticks = experiment: Test E preemergence; type: in vivo, Bidens pilosa; conditions: scale 0 to 100
Text: as §1, §2

`COc1nc(-c2ccc(F)cc2)nn1Cc1ccnc(C(F)(F)F)c1` [Compound 9, 4-[[3-(4-fluorophenyl)-5-methoxy-1H-1,2,4-triazol-1-yl]methyl]-2-(trifluoromethyl)pyridine] was tested, and the “Plant response rating (scale of 0 to 100 where 0 is no effect and 100 is complete control)” value (morningglory [1]; 125 g ai/ha) was 45, the “Plant response rating (scale of 0 to 100 where 0 is no effect and 100 is complete control)” value (morningglory [1]; 250 g ai/ha) was 90 and the “Morningglory plant response rating (0 to 100)” value (morningglory [1]; 31 g ai/ha) was 5. The “Morningglory plant response rating (0 to 100)” value (morningglory [1]; 62 g ai/ha) was 45.
With `CCCc1nc(-c2ccc(F)cc2)nn1Cc1ccnc(C(F)(F)F)c1` [Compound 6, 4-[[3-(4-fluorophenyl)-5-propyl-1H-1,2,4-triazol-1-yl]methyl]-2-(trifluoromethyl)pyridine] the “Plant response rating (scale of 0 to 100 where 0 is no effect and 100 is complete control)” value (morningglory [1]; 125 g ai/ha) was 75, the “Plant response rating (scale of 0 to 100 where 0 is no effect and 100 is complete control)” value (morningglory [1]; 250 g ai/ha) was 100 and the “Morningglory plant response rating (0 to 100)” value (morningglory [1]; 31 g ai/ha) was 45. The “Morningglory plant response rating (0 to 100)” value (morningglory [1]; 62 g ai/ha) was 60, the Plant response rating (surinam grass; 16 g ai/ha) was 20 and the Plant response rating (surinam grass; 31 g ai/ha) was 40. For the same molecule, the Plant response rating (surinam grass; 62 g ai/ha) was 40, the Plant response rating (surinam grass; 125 g ai/ha) was 50 and the Plant response rating (surinam grass; 250 g ai/ha) was 50. It also gave a Plant response rating (crabgrass, Brazilian; 16 g ai/ha) of 75, a Plant response rating (crabgrass, Brazilian; 31 g ai/ha) of 80 and a Plant response rating (crabgrass, Brazilian; 62 g ai/ha) of 100. The Plant response rating (crabgrass, Brazilian; 125 g ai/ha) was 100, the Plant response rating (crabgrass, Brazilian; 250 g ai/ha) was 100 and the Plant response rating (foxtail, giant; 16 g ai/ha) was 50. It also gave a Plant response rating (foxtail, giant; 62 g ai/ha) of 60, a Plant response rating (foxtail, giant; 125 g ai/ha) of 95 and a Plant response rating (foxtail, giant; 250 g ai/ha) of 100. The Plant response rating (barnyardgrass; 16 g ai/ha) was 10, the Plant response rating (barnyardgrass; 31 g ai/ha) was 40 and the Plant response rating (barnyardgrass; 62 g ai/ha) was 50. The Plant response rating (barnyardgrass; 125 g ai/ha) was 60, the Plant response rating (barnyardgrass; 250 g ai/ha) was 75 and the Plant response rating (sandbur; 16 g ai/ha) was 10. It also gave a Plant response rating (sandbur; 31 g ai/ha) of 40, a Plant response rating (sandbur; 62 g ai/ha) of 50 and a Plant response rating (sandbur; 125 g ai/ha) of 70. For the same molecule, the Plant response rating (sandbur; 250 g ai/ha) was 80, the Plant response rating (morningglory [2]; 31 g ai/ha) was 10 and the Plant response rating (morningglory [2]; 62 g ai/ha) was 10. It also gave a Plant response rating (morningglory [2]; 125 g ai/ha) of 30, a Plant response rating (kochia; 16 g ai/ha) of 60 and a Plant response rating (kochia; 31 g ai/ha) of 80. It also gave a Plant response rating (kochia; 62 g ai/ha) of 80, a Plant response rating (kochia; 125 g ai/ha) of 85 and a Plant response rating (kochia; 250 g ai/ha) of 100. The Plant response rating (beggarticks; 16 g ai/ha) was 0, the Plant response rating (beggarticks; 31 g ai/ha) was 0 and the Plant response rating (beggarticks; 62 g ai/ha) was 0. For the same molecule, the Plant response rating (beggarticks; 125 g ai/ha) was 20 and the Plant response rating (beggarticks; 250 g ai/ha) was 70.
With `COc1nc(-c2ccccc2)nn1Cc1ccnc(C(F)(F)F)c1` [Compound 32] the “Plant response rating (scale of 0 to 100 where 0 is no effect and 100 is complete control)” value (morningglory [1]; 125 g ai/ha) was 5, the “Plant response rating (scale of 0 to 100 where 0 is no effect and 100 is complete control)” value (morningglory [1]; 250 g ai/ha) was 45 and the “Morningglory plant response rating (0 to 100)” value (morningglory [1]; 31 g ai/ha) was 0. The “Morningglory plant response rating (0 to 100)” value (morningglory [1]; 62 g ai/ha) was 5.
`FC(F)(F)COc1nc(-c2ccccc2)nn1Cc1ccnc(C(F)(F)F)c1` [Compound 24] was tested, and the “Plant response rating (scale of 0 to 100 where 0 is no effect and 100 is complete control)” value (morningglory [1]; 125 g ai/ha) was 35, the “Plant response rating (scale of 0 to 100 where 0 is no effect and 100 is complete control)” value (morningglory [1]; 250 g ai/ha) was 40 and the “Morningglory plant response rating (0 to 100)” value (morningglory [1]; 31 g ai/ha) was 10. The “Morningglory plant response rating (0 to 100)” value (morningglory [1]; 62 g ai/ha) was 30.
In the case of `FC(F)(F)COc1nc(-c2ccc(Cl)cc2)nn1Cc1ccnc(C(F)(F)F)c1` [Compound 31], the “Plant response rating (scale of 0 to 100 where 0 is no effect and 100 is complete control)” value (morningglory [1]; 125 g ai/ha) is reported as 55, the “Plant response rating (scale of 0 to 100 where 0 is no effect and 100 is complete control)” value (morningglory [1]; 250 g ai/ha) is reported as 65 and the “Morningglory plant response rating (0 to 100)” value (morningglory [1]; 31 g ai/ha) is reported as 25. The “Morningglory plant response rating (0 to 100)” value (morningglory [1]; 62 g ai/ha) was 45.
`CCOc1nc(-c2ccc(C(F)(F)F)cc2)nn1Cc1ccnc(C(F)(F)F)c1` [Compound 35, 4-[[5-ethoxy-3-[4-(trifluoromethyl)phenyl]-1H-1,2,4-triazole-1-yl]methyl]-2-(trifluoromethyl)pyridine] was tested, and the “Plant response rating (scale of 0 to 100 where 0 is no effect and 100 is complete control)” value (morningglory [1]; 125 g ai/ha) was 80, the “Plant response rating (scale of 0 to 100 where 0 is no effect and 100 is complete control)” value (morningglory [1]; 250 g ai/ha) was 90 and the “Morningglory plant response rating (0 to 100)” value (morningglory [1]; 31 g ai/ha) was 70. For the same molecule, the “Morningglory plant response rating (0 to 100)” value (morningglory [1]; 62 g ai/ha) was 60.
In the case of `CCOc1nc(-c2ccc(F)cc2)nn1Cc1ccnc(C(F)(F)F)c1` [Compound 8, 4-[[5-ethoxy-3-(4-fluorophenyl)-1H-1,2,4-triazol-1-yl]methyl]-2-(trifluoromethyl)pyridine], the “Plant response rating (scale of 0 to 100 where 0 is no effect and 100 is complete control)” value (morningglory [1]; 125 g ai/ha) is reported as 98, the “Plant response rating (scale of 0 to 100 where 0 is no effect and 100 is complete control)” value (morningglory [1]; 250 g ai/ha) is reported as 100 and the “Morningglory plant response rating (0 to 100)” value (morningglory [1]; 31 g ai/ha) is reported as 85. The “Morningglory plant response rating (0 to 100)” value (morningglory [1]; 62 g ai/ha) was 100, the Plant response rating (surinam grass; 62 g ai/ha) was 50 and the Plant response rating (surinam grass; 125 g ai/ha) was 75. For the same molecule, the Plant response rating (crabgrass, Brazilian; 62 g ai/ha) was 100, the Plant response rating (crabgrass, Brazilian; 125 g ai/ha) was 100 and the Plant response rating (foxtail, giant; 62 g ai/ha) was 100. For the same molecule, the Plant response rating (foxtail, giant; 125 g ai/ha) was 100, the Plant response rating (barnyardgrass; 62 g ai/ha) was 75 and the Plant response rating (barnyardgrass; 125 g ai/ha) was 95. The Plant response rating (sandbur; 62 g ai/ha) was 60, the Plant response rating (sandbur; 125 g ai/ha) was 98 and the Plant response rating (morningglory [2]; 62 g ai/ha) was 70. It also gave a Plant response rating (morningglory [2]; 125 g ai/ha) of 100, a Plant response rating (kochia; 62 g ai/ha) of 100 and a Plant response rating (kochia; 125 g ai/ha) of 100. For the same molecule, the Plant response rating (beggarticks; 62 g ai/ha) was 20 and the Plant response rating (beggarticks; 125 g ai/ha) was 20.
